In PubChem BioAssay AID720713 (Broad Institute, 2013):
Active and inactive are the calls of the source. The rule behind the calls is not given here.

Assays:
[1] = A549 cell cytotoxicity, dose response, plate reader, dry powder, set 2 (AID 720713); settings: A549 cytotoxicity, plate reader
[2] = test system: A549 cytotoxicity, plate reader; assay: as above

| SMILES | activity change, negative = cytotoxicity ([1]; at 26 µM (top of the series)) | further results |
| --- | --- | --- |
| CCOC(=O)c1ccc(NC(=O)Cn2ncc(Cl)c(Cl)c2=O)cc1 | -6.56% (inactive) |  |
| COc1ccc2c(c1)c(CC(=O)Nc1cc(C)ccc1C)c(C)n2C(=O)c1ccc(Cl)cc1 | -1.36% (inactive) |  |
| Cc1cc2c(cc(C(=O)N3CCC(C(=O)NC4CCCC4)CC3)n2Cc2c(F)cccc2Cl)o1 | -19.5% (inactive) |  |
| Fc1ccc(-n2nnnc2-c2cnc(-c3cccs3)nc2C(F)(F)F)cc1 | 2.19% (inactive) |  |
| Cc1ccc2cc(CN(CC3CCCO3)C(=O)NC3CCCCC3)c(=O)[nH]c2c1C (configuration not stated) | 106% (inactive) |  |
| CN(C)S(=O)(=O)c1cccc(NC(=O)c2cccc(S(=O)(=O)N3CCc4ccccc43)c2)c1 | -0.758% (inactive) |  |
| O=C1CSc2ccc(C(=O)Nc3cccc(S(=O)(=O)Nc4ccc(Br)cc4)c3)cc2N1 | 12% (inactive) |  |
| CC(=O)Nc1cccc(NC(=O)CSc2ncc(-c3ccc(Cl)cc3)n2Cc2ccco2)c1 | 11.6% (inactive) |  |
| CC(C)(C)NC(=O)CSc1nc2ccc(NC(=O)CSc3nnnn3Cc3ccccc3)cc2s1 | 16.7% (inactive) |  |
| CCOC(=O)C1CCN(C(=O)c2ccc(OCC(=O)Nc3cccc(C(F)(F)F)c3)c(OC)c2)CC1 | -17.5% (inactive) |  |
| CN(CC(=O)Nc1cccc(S(=O)(=O)N2CCOCC2)c1)CC(=O)Nc1ccc(Cl)c(C(F)(F)F)c1 | 8.78% (inactive) |  |
| CN(C(=O)COc1ccccc1C(=O)NCCOc1ccccc1)c1ccccc1 |  | activity change, negative = cytotoxicity ([1]; at 12 µM (top of the series)): 2.59% (inactive) |
| COc1ccc(NC(=O)c2nc(S(=O)(=O)Cc3cccc(C)c3)ncc2Cl)c(OC)c1 |  | AC50 [2]: > 52 µM (inactive) |
| O=C(c1nnsc1S(=O)c1ccc(Cl)cc1)N1CCOCC1 (configuration not stated) | -41.1% (inactive) |  |
| CC(=O)N1CCN(C(=O)CCc2cc(C(C)(C)C)c(O)c(C(C)(C)C)c2)CC1 | -4.62% (inactive) |  |
| COc1ccc(NS(=O)(=O)c2ccc(C(=O)N3CCCCCC3)cc2)cc1 | 22% (inactive) |  |
| COc1ccccc1N1CCN(c2ncc(C(=O)N3CCN(c4cccc(Cl)c4)CC3)c3ccccc23)CC1 | 4.47% (inactive) |  |
| CCOC(=O)C1(Cc2ccc(Cl)cc2)CCN(C(C)Cc2ccc(O)c(OC)c2)CC1 (configuration not stated) | 1.75% (inactive) |  |
| COc1cc(CN2CCc3ccccc3C2)ccc1O | -37.2% (inactive) |  |
| Nc1nonc1C(=O)NCCNCc1cc(Br)ccc1OCc1ccc(F)cc1 | 4.85% (inactive) |  |
| CN(C)c1nc(-c2ccccn2)nnc1-c1ccccc1 |  | AC50 [2]: 25.6 µM |
| CC(C)[C@H](NC(=O)OC(C)(C)C)c1nnc(S(=O)(=O)Cc2c(F)cccc2Cl)o1 | 22.5% (inactive) |  |
| COc1ccc(Nc2nc(N3CCCCC3)c3ccccc3n2)cc1 | 5.38% (inactive) |  |
| O=c1c2ccccc2nc2n1C(CSCc1ccc(Cl)cc1Cl)CS2 (configuration not stated) | 6.09% (inactive) |  |
| COc1cc2ncnc(N[C@H](C)c3ccccc3)c2cc1OC | 10.2% (inactive) |  |
| Cc1cc(N2CCCC2=O)cc(C)c1S(=O)(=O)NCCOc1ccc(C(C)(C)C)cc1 | 11% (inactive) |  |
| CCCc1nnc(NC(=O)c2nc(S(=O)(=O)Cc3ccc(C)cc3)ncc2Cl)s1 | 8.63% (inactive) |  |
